Data on ten compounds can be found in US20240309043A1, “THERAPEUTICALLY ACTIVE STEROIDAL DERIVATIVES” (Organon R&D Finland Ltd., priority 2017, published 2024).

Format in all cases: biochemical
For experiment [1], the target named is T1, recombinant human 17β-HSD2 (Homo sapiens, UniProt P37059).
T1 construct: made in house; host or cells: Sd9 (Sf9) insect cells, baculovirus (Bac to Bac Expression System)
T1 sequence (P37059 1-387): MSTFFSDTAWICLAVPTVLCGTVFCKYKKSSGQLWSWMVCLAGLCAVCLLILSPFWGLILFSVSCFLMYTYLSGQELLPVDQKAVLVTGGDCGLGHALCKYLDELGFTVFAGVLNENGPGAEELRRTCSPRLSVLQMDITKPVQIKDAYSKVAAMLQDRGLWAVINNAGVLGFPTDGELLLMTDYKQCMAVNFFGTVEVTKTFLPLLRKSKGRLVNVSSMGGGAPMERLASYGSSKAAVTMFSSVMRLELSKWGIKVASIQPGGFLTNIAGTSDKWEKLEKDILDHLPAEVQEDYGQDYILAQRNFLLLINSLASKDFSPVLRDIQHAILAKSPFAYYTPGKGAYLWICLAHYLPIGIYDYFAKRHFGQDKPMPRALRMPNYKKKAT
Put plainly: Inhibition of recombinant human 17β-HSD2. Particulars: inhibitor 1 μM; 50 nM estradiol, 1 mM NADH, 30 min RT. As for the experimental part: 17β-HSD2 production and isolation: Similarly to 17β-HSD1 the Recombinant baculovirus was generated by the “Bac to Bac Expression System” (Invitrogen). Recombinant bacmid was transfected to Sd9 insect cells using “Cellfectin Reagent” (Invitrogen). 60 h later cells were harvested and supernatant were fractionated by the following protocol: • cells were dissolved into 40 ml of A-buffer (40 mM TRIS, pH 8.0, 20% glycerol, 20 μM NAD, 0.4 mM PMSF, 150 mM NaCl, 0.5% dodecyl-β-maltoside+protease inhibitor cocktail) • cells were sonicated • lysate was incubated on ice for 15 min • lysate was centrifuged 5000 rpm 15 min, +4° C. • centrifugation of the supernatant 180 000 g 30 min, +4° C. • pellet was dissolved into 8 ml of A-buffer • not resuspended material was removed by centrifugation 5000 rpm min, +4° C. • the clear supernatant was divided into 100 μl aliquots and were stored frozen until determination of enzymatic activity.
The amount of 17β-HSD2 was analysed by immunoblotting and total protein concentration of each extract batch was determined.
Assay—Inhibition of recombinant human 17β-HSD2: Recombinant protein (4 μg/ml) was incubated in 20 mM KH2PO4 pH 8.5 with 50 nM estradiol (including 800 000 cpm/ml of ^3H-estradiol) and 1 mM NADH for 30 min at RT, in the presence of the potential inhibitor at concentrations 1 μM or 0.1 μM. Inhibitor stock solutions were prepared in DMSO. Final concentration of DMSO was adjusted to 1% in all samples. The enzyme reaction was stopped by addition of 10% trichloroacetic acid (final concentration). Samples were centrifuged in a microtiter plate at 4000 rpm for 10 min. Supernatants were applied to reverse phase HPLC on a Waters Symmetry C18 column, equipped with a Waters Sentry Guard column. Isocratic HPLC runs were performed at RT at a flow rate of 1 ml/min in acetonitrile:water 48:52 as running solvent. Radioactivity was monitored in the eluate by a Scintillation Analyzer. Total radioactivity for estrone and estradiol were determined in each sample and percent conversion of estradiol to estrone was calculated according to the following formula:
(§1) [formula] Percent inhibition was calculated flowingly: % inhibition=100−% conversion

Experiment [2] concerns the target T2, recombinant human 17β-HSD1 (Homo sapiens, UniProt P14061).
T2 construct: made in house; host or cells: Sd9 (Sf9) insect cells, baculovirus (Bac to Bac Expression System)
T2 sequence (P14061 1-328): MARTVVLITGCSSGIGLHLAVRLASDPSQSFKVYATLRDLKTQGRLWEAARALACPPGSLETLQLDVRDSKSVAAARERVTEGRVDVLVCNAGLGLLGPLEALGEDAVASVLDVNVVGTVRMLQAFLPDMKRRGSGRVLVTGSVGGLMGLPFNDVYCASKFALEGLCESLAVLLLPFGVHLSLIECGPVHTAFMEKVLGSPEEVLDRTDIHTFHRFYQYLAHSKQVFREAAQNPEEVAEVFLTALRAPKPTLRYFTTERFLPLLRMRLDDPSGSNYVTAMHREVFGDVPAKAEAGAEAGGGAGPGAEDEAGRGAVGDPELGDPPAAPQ
Description: Inhibition of recombinant human 17β-HSD1. Particulars: inhibitor 100 nM; 30 nM estrone, 1 mM NADPH, 30 min RT. As for the experimental part:
17β-HSD1 production and isolation: Recombinant baculovirus was generated by the “Bac to Bac Expression System” (Invitrogen). Recombinant bacmid was transfected to Sd9 insect cells using “Cellfectin Reagent” (Invitrogen). 60 h later cells were harvested; the microsomal fraction was isolated as described by Puranen, T. J., Poutanen, M. H., Peltoketo, H. E., Vihko, P. T. and Vihko, R. K. (1994) Site-directed mutagenesis of the putative active site of human 17 β-hydroxysteroid dehydrogenase type 1. Biochem. J. 304: 289-293. Aliquots were stored frozen until determination of enzymatic activity.
Assay—Inhibition of recombinant human 17β-HSD1: Recombinant protein (1 μg/ml) was incubated in 20 mM KH2PO4 pH 7.4 with 30 nM estrone (including 800 000 cpm/ml of ^3H-estrone) and 1 mM NADPH for 30 min at RT, in the presence of the potential inhibitor at concentrations 1 μM or 0.1 μM. Inhibitor stock solutions were prepared in DMSO. Final concentration of DMSO was adjusted to 1% in all samples. The enzyme reaction was stopped by addition of 10% trichloroacetic acid (final concentration). Samples were centrifuged in a microtiter plate at 4000 rpm for 10 min. Supernatants were applied to reverse phase HPLC on a Waters Symmetry C18 column, equipped with a Waters Sentry Guard column. Isocratic HPLC runs were performed at RT at a flow rate of 1 ml/min in acetonitrile:water 48:52 as running solvent. Radioactivity was monitored in the eluate by a Scintillation Analyzer. Total radioactivity for estrone and estradiol were determined in each sample and percent conversion of estrone to estradiol was calculated according to the following formula:
as §1

Experiment [3] has as its system HSD1 enzyme that is expressed in rabbit placenta tissue. Put plainly: Inhibition of E1 to E2 conversion in rabbit placenta tissue homogenate. Particulars: inhibitor 100 nM, 30 nM estrone, 30 min. The method, then:
The assay is based on an enzymatic reaction where HSD1 enzyme that is expressed in rabbit placenta tissue converts its natural substance estrone (E1) to estradiol (E2) in the presence of a co-factor β-NADPH.
Homogenization of rabbit placenta tissue: Weight a piece of the frozen tissue into a Precellys ck28 bead tube. Add buffer solution (20 mM KH2PO4 with 1 mM EDTA, pH 7,4) in 1:2 ratio (e.g. 300 mg of tissue:600 μl reaction buffer solution). Insert the bead tubes to homogenizer and homogenize 2×30 s. 6000 rpm. Centrifugated 5 min., 2600 rpm at +4° C. and collect supernatant. Aliquots of homogenate are stored in −80° C.
Assay—Inhibition of E1 to E2 conversion in rabbit placenta tissue: The reaction takes place in a buffer solution (20 mM KH2PO4 with 1 mM EDTA, pH 7,4), including appropriate amount of rabbit placenta homogenate, co-factor (1 mM β-NADPH), Substrate (30 nM estrone), labelled substrate as tracer (5 nM [^3H]-estrone). During a 30-minute incubation part of the estrone is converted to estradiol. The reaction is stopped by lowering the pH to 1 with 10% trichloro acetic acid (TCA). The substrate and conversion products are analyzed by HPLC and a Scintillation counter analyzer. Total radioactivity for estrone and estradiol were determined in each sample and percent conversion of estrone to estradiol was calculated according to the following formula:
Percent inhibition was calculated flowingly: % inhibition=100−% conversion.

In general, inhibition refers to the relative decrease from the control value, in per cent.

As for `C[C@]12CCC3c4cccc(F)c4CCC3C1[C@H](CCC(=O)Nc1nncs1)C/C2=N\O` (stereo partly drawn) [Compound 18, 3-((13S,15R,E)-4-fluoro-17-(hydroxyimino)-13-methyl-7,8,9,11,12,13,14,15,16,17-decahydro-6H-cyclopenta[a]phenanthren-15-yl)-N-(1,3,4-thiadiazol-2-yl)propanamide], in experiment [1], the inhibition at 1 µM is 14%. In experiment [2], the inhibition at 0.1 µM was determined as 68%. Besides, the “Rabbit placenta inhibition % @100 nM” value in experiment [3] was 62%.

Turning to `CCN(CC)C(=O)CC[C@@H]1C/C(=N\O)[C@@]2(C)CCC3c4cccc(F)c4CCC3C12` (stereo partly drawn) [Compound 24, N,N-diethyl-3-((13S,15R,E)-4-fluoro-17-(hydroxyimino)-13-methyl-7,8,9,11,12,13,14,15,16,17-decahydro-6H-cyclopenta[a]phenanthren-15-yl)propanamide], the inhibition at 1 µM in experiment [1] worked out at 12%. Further, the inhibition at 0.1 µM in experiment [2] turned out to be 85%. Moreover, the “Rabbit placenta inhibition % @100 nM” value in experiment [3] amounted to 18%.

In the case of `C[C@]12CCC3c4ccc(F)cc4CCC3C1[C@H](CCC(=O)Nc1ccc(F)cn1)C/C2=N\O` (stereo partly drawn) [Compound 26, 3-((13S,15R,E)-3-fluoro-17-(hydroxyimino)-13-methyl-7,8,9,11,12,13,14,15,16,17-decahydro-6H-cyclopenta[a]phenanthren-15-yl)-N-(5-fluoropyridin-2-yl)propanamide], the inhibition at 1 µM in experiment [1] was determined as 8%. Besides, the inhibition at 0.1 µM in experiment [2] was 49%. Besides, the “Rabbit placenta inhibition % @100 nM” value in experiment [3] amounted to 10%.

In the case of `COc1ccc(NC(=O)CC[C@@H]2C/C(=N\O)[C@@]3(C)CCC4c5ccc(F)cc5CCC4C23)nc1` (stereo partly drawn) [Compound 28, 3-((13S,15R,E)-3-fluoro-17-(hydroxyimino)-13-methyl-7,8,9,11,12,13,14,15,16,17-decahydro-6H-cyclopenta[a]phenanthren-15-yl)-N-(5-methoxypyridin-2-yl)propanamide], in experiment [1], the inhibition at 1 µM worked out at 7%. Further, the inhibition at 0.1 µM in experiment [2] came out at 74%. Moreover, the “Rabbit placenta inhibition % @100 nM” value in experiment [3] was found to be 48%.

Turning to `COc1ccc(NC(=O)CC[C@@H]2C/C(=N\O)[C@@]3(C)CCC4c5ccc(F)cc5CCC4C23)nn1` (stereo partly drawn) [Compound 30, 3-((13S,15R,E)-3-fluoro-17-(hydroxyimino)-13-methyl-7,8,9,11,12,13,14,15,16,17-decahydro-6H-cyclopenta[a]phenanthren-15-yl)-N-(6-methoxypyridazin-3-yl)propanamide], the inhibition at 1 µM in experiment [1] came out at 3%. Moreover, the inhibition at 0.1 µM in experiment [2] stood at 40%. The “Rabbit placenta inhibition % @100 nM” value in experiment [3] is listed as 79%.

`Cc1ccc(NC(=O)CC[C@@H]2C/C(=N\O)[C@@]3(C)CCC4c5ccc(F)cc5CCC4C23)nn1` (stereo partly drawn) [Compound 32, 3-((13S,15R,E)-3-fluoro-17-(hydroxyimino)-13-methyl-7,8,9,11,12,13,14,15,16,17-decahydro-6H-cyclopenta[a]phenanthren-15-yl)-N-(6-methylpyridazin-3-yl)propanamide]: the inhibition at 1 µM in experiment [1] came to 9%. Besides, the inhibition at 0.1 µM in experiment [2] is 35%. In experiment [3], the “Rabbit placenta inhibition % @100 nM” value is listed as 55%.

As for `CN(C(=O)CC[C@@H]1C/C(=N\O)[C@@]2(C)CCC3c4ccc(F)cc4CCC3C12)C1COC1` (stereo partly drawn) [Compound 36, 3-((13S,15R,E)-3-fluoro-17-(hydroxyimino)-13-methyl-7,8,9,11,12,13,14,15,16,17-decahydro-6H-cyclopenta[a]phenanthren-15-yl)-N-methyl-N-(oxetan-3-yl)propanamide], the inhibition at 1 µM in experiment [1] came out at 10%. The inhibition at 0.1 µM in experiment [2] stood at 33%. Moreover, the “Rabbit placenta inhibition % @100 nM” value in experiment [3] stood at 12%.

In the case of `CCN(CC)C(=O)CC[C@@H]1C/C(=N\O)[C@@]2(C)CCC3c4ccc(F)cc4CCC3C12` (stereo partly drawn) [Compound 40, N,N-diethyl-3-((13S,15R,E)-3-fluoro-17-(hydroxyimino)-13-methyl-7,8,9,11,12,13,14,15,16,17-decahydro-6H-cyclopenta[a]phenanthren-15-yl)propanamide], in experiment [1], the inhibition at 1 µM came out at 6%. Besides, the inhibition at 0.1 µM in experiment [2] was 46%. For the same compound, the “Rabbit placenta inhibition % @100 nM” value in experiment [3] is 6%.

As to `C[C@]12CCC3c4ccc(Cl)cc4CCC3C1[C@H](CCC(=O)Nc1cccnn1)C/C2=N\O` (stereo partly drawn) [Compound 44, 3-((13S,15R,E)-3-chloro-17-(hydroxyimino)-13-methyl-7,8,9,11,12,13,14,15,16,17-decahydro-6H-cyclopenta[a]phenanthren-15-yl)-N-(pyridazine-3-yl)propanamide], in experiment [1], the inhibition at 1 µM stood at 2%. The inhibition at 0.1 µM in experiment [2] stood at 20%. For the same compound, the “Rabbit placenta inhibition % @100 nM” value in experiment [3] amounted to 11%.

With `C[C@]12CCC3c4ccc(Cl)cc4CCC3C1[C@H](CCC(=O)NC1=NCCS1)C/C2=N\O` (stereo partly drawn) [Compound 46, 3-((13S,15R,E)-3-chloro-17-(hydroxyimino)-13-methyl-7,8,9,11,12,13,14,15,16,17-decahydro-6H-cyclopenta[a]phenanthren-15-yl)-N-(4,5-dihydrothiazol-2-yl)propanamide], the inhibition at 1 µM in experiment [1] is 0%. The inhibition at 0.1 µM in experiment [2] turned out to be 55%. In addition, in experiment [3], the “Rabbit placenta inhibition % @100 nM” value is reported as 50%.
